Reference: patent publication US11491120B2, “Pharmacological prophylactics against stress-induced affective disorders in females” (The Trustees of Columbia University in the City of New York, priority 2017, dated 2022)

Tested on: female 129S6/SvEv mice
Assay: Forced swim test (FST), immobility time, after stress
[1] = Forced Swim Test Day 1, Dunnett test Sal vs. drug (2.5), 1 week prophylactic drug
[2] = Forced Swim Test Day 1, Dunnett test Sal vs. drug (10), 1 week prophylactic drug
[3] = Ovariectomized cohort, 1 week prophylactic drug, Forced Swim Test Day 1, OVX mice, K (10), (2R,6R)-HNK (0.025)
[4] = Ovariectomized cohort, 1 week prophylactic drug, Forced Swim Test Day 1, Sham mice, K (10), (2R,6R)-HNK (0.025)
[5] = Ovariectomized cohort, 1 week prophylactic drug, Forced Swim Test Day 1, Sham vs OVX, same drug, K (10), (2R,6R)-HNK (0.025)
[6] = Ovariectomized, E2/P4 replacement, 1 week prophylactic drug, Forced Swim Test Day 2, K (10), (2R,6R)-HNK (0.025), FIG. 5F
[7] = Ovariectomized, same drug, hormone Vehicle vs. E2/P4 replacement, 1 week prophylactic drug, Forced Swim Test Day 2, K (10), (2R,6R)-HNK (0.025), FIG. 5F
[8] = Sal vs. (2R,6R)-HNK (0.025), Fisher's PLSD, 1 week prophylactic drug, learned helplessness stress, Forced Swim Test Day 1
[9] = Sal vs. (2R,6R)-HNK (0.025), Fisher's PLSD, 3 day prophylactic drug/Forced Swim Test Day 1

**Q.** How did the “p, Immobility Time (min 3)” value [1] turn out when N[C@@]1(c2ccccc2Cl)CCC[C@@H](O)C1=O [(2R,6R)-HNK, (2R,6R)-hydroxynorketamine] was run?
**A.** 0.9998

**Q.** What about the “p, Immobility Time (min 4)” value [1] of the same compound?
**A.** 0.9999

**Q.** What about the “p, Immobility Time (min 5)” value [1] of the same compound?
**A.** 0.9867

**Q.** What about the “p, Immobility Time (min 6)” value [1] of the same compound?
**A.** 0.9994

**Q.** And the “p, Immobility Time Average (min 3-6)” value [1]?
**A.** 0.9997

**Q.** What about the “p, Immobility Time (min 1)” value [2] of the same compound?
**A.** 0.0528

**Q.** What about the “p, Immobility Time (min 1-6)” value [2] of the same compound?
**A.** 0.9943

**Q.** What about the “p, Immobility Time (min 3)” value [2] of the same compound?
**A.** 0.6584

**Q.** What about the “p, Immobility Time (min 4)” value [2] of the same compound?
**A.** 0.5947

**Q.** What about the “p, Immobility Time (min 5)” value [2] of the same compound?
**A.** 0.6743

**Q.** What about the “p, Immobility Time (min 6)” value [2] of the same compound?
**A.** 0.1601

**Q.** And the “p, Immobility Time Average (min 3-6)” value [2]?
**A.** 0.3035

**Q.** What about the “p, Immobility Time (min 1-6), OVX Sal vs OVX drug” value [3] of the same compound?
**A.** 0.2525

**Q.** What about the “p, Immobility Time Average (min 3-6), Fisher's PLSD, OVX Sal vs OVX drug” value [3] of the same compound?
**A.** 0.3199

**Q.** And the “p, Immobility Time (min 1-6), Sham Sal vs Sham drug” value [4]?
**A.** 0.7085

**Q.** What about the “p, Immobility Time Average (min 3-6), Fisher's PLSD, Sham Sal vs Sham drug” value [4] of the same compound?
**A.** 0.9957

**Q.** What about the “* (significance), Immobility Time (min 1-6), Sham drug vs OVX drug” value [5] of the same compound?
**A.** *** (*** p<0.0001)

**Q.** What about the “* (significance), Immobility Time Average (min 3-6), Fisher's PLSD, Sham drug vs OVX drug” value [5] of the same compound?
**A.** *** (*** p<0.0001)

**Q.** What about the “p, Immobility Time (min 1-6), Sham drug vs OVX drug” value [5] of the same compound?
**A.** <0.0001

**Q.** What about the “p, Immobility Time Average (min 3-6), Fisher's PLSD, Sham drug vs OVX drug” value [5] of the same compound?
**A.** 0.0001

**Q.** And the “p, Fisher's PLSD, Immobility Time Average (min 3-6), OVX Sal vs. OVX drug” value (Ovariectomized females, 1 week prophylactic drug, Forced Swim Test Day 2, K (10), (2R,6R)-HNK (0.025), FIG. 5C)?
**A.** 0.9445

**Q.** And the “p, Fisher's PLSD, Immobility Time Average (min 3-6), E2/P4 Sal vs. E2/P4 drug” value [6]?
**A.** 0.0316

**Q.** And the “significance (*), Fisher's PLSD, Immobility Time Average (min 3-6), E2/P4 Sal vs. E2/P4 drug” value [6]?
**A.** * (* p<0.05)

**Q.** What about the “p, Fisher's PLSD, Immobility Time Average (min 3-6), Vehicle Sal vs. Vehicle drug” value (Ovariectomized, hormone Vehicle, 1 week prophylactic drug, Forced Swim Test Day 2, K (10), (2R,6R)-HNK (0.025), FIG. 5F) of the same compound?
**A.** 0.6287

**Q.** And the “p, Fisher's PLSD, Immobility Time Average (min 3-6), Vehicle drug vs. E2/P4 drug” value [7]?
**A.** 0.0013

**Q.** What about the “significance (*), Fisher's PLSD, Immobility Time Average (min 3-6), Vehicle drug vs. E2/P4 drug” value [7] of the same compound?
**A.** ** (** p<0.01)

**Q.** And the “*, Immobility Time (min 1)” value [8]?
**A.** ** (** p<0.01)

**Q.** And the “*, Immobility Time (min 2)” value [8]?
**A.** *** (*** p<0.0001)

**Q.** What about the “*, Immobility Time (min 3)” value [8] of the same compound?
**A.** *** (*** p<0.0001)

**Q.** And the “*, Immobility Time (min 4)” value [8]?
**A.** ** (** p<0.01)

**Q.** What about the “*, Immobility Time (min 5)” value [8] of the same compound?
**A.** ** (** p<0.01)

**Q.** What about the “*, Immobility Time (min 6)” value [8] of the same compound?
**A.** ** (** p<0.01)

**Q.** And the “*, Immobility Time Average (min 1-6)” value [8]?
**A.** *** (*** p<0.0001)

**Q.** What about the “p, Immobility Time (min 1)” value [8] of the same compound?
**A.** 0.0043

**Q.** And the “p, Immobility Time (min 2)” value [8]?
**A.** <0.0001

**Q.** And the “p, Immobility Time (min 3)” value [8]?
**A.** 0.0001

**Q.** And the “p, Immobility Time (min 4)” value [8]?
**A.** 0.0009

**Q.** And the “p, Immobility Time (min 5)” value [8]?
**A.** 0.0002

**Q.** What about the “p, Immobility Time (min 6)” value [8] of the same compound?
**A.** 0.0002

**Q.** And the “p, Immobility Time Average (min 1-6)” value [8]?
**A.** 0.0001

**Q.** What about the “*, Immobility Time (min 1)” value [9] of the same compound?
**A.** *** (*** p<0.0001)

**Q.** What about the “*, Immobility Time (min 2)” value [9] of the same compound?
**A.** ** (** p<0.01)

**Q.** And the “*, Immobility Time (min 3)” value [9]?
**A.** ** (** p<0.01)
